Experimental data taken from patent US20260297060A1, “COMPOUNDS FOR THE DEGRADATION OF MUTANT BRAF” (C4 THERAPEUTICS, INC., priority 2023, published 2026).
Read-outs that look alike come from different tables or passages of the source.

Target: T1, BRAF V600E (Homo sapiens, UniProt P15056+Q96SW2, V600E)
T1 construct: knock-in of the HiBiT tag to the endogenous BRAF V600E locus; host or cells: A375.10 (A375 clonal line, CRISPR HiBiT knock-in at the endogenous BRAF V600E locus)
Experiment: BRAF V600E HiBiT Degradation Assay
Format: cell-based
Procedure, shortened: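 Endogenous HiBiT knock-in on BRAF V600E in A375 cells (clone A375.10); 11-point half-log series, top 10 μM, 2, 6 or 24 h at 37° C. Lytic HiBiT luminescence, background-subtracted, normalized to DMSO; 4-parameter fit gives DC50, Emax (residual protein) and IP (inflection point).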

[1] = read-out: HiBiT-Degradation A375.10 BRAF 2 hours DC50; A375.10 cells, BRAF V600E, 2 hours
[2] = read-out: HiBiT-Degradation A375.10 BRAF 2 hours Emax, A375.10 cells, BRAF V600E, 2 hours; residual protein remaining
[3] = read-out: HiBiT-Degradation A375.10 BRAF 2 hours IP; A375.10 cells, BRAF V600E, 2 hours; inflection point
[4] = A375.10 cells, BRAF V600E, 2 hours; inflection point; read-out: HiBiT-Degradation A375.10 BRAF 2 hours IP
[5] = A375.10 cells, BRAF V600E, 2 hours; read-out: HiBiT-Degradation A375.10 BRAF 2 hours DC50

T1 sequence (P15056 whole entry V600E): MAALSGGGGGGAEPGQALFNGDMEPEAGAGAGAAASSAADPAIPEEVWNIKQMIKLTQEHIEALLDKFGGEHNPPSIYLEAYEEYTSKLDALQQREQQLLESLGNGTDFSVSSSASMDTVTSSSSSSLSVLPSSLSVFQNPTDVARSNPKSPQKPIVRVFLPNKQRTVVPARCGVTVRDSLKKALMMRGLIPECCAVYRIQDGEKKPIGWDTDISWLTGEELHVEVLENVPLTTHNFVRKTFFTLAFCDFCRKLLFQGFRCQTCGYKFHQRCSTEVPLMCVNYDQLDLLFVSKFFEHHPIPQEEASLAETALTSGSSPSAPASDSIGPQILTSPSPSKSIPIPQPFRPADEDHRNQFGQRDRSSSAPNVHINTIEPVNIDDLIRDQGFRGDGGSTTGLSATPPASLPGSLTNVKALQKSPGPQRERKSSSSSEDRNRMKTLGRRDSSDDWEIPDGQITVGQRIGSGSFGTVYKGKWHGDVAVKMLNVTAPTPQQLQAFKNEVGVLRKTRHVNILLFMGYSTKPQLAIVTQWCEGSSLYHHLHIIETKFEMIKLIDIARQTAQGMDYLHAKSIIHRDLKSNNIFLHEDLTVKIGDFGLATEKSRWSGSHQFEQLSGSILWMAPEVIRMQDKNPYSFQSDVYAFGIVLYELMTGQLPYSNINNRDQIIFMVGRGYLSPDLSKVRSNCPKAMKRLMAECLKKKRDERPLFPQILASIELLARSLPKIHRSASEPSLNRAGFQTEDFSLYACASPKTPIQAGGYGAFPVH
T1 sequence (Q96SW2 whole entry): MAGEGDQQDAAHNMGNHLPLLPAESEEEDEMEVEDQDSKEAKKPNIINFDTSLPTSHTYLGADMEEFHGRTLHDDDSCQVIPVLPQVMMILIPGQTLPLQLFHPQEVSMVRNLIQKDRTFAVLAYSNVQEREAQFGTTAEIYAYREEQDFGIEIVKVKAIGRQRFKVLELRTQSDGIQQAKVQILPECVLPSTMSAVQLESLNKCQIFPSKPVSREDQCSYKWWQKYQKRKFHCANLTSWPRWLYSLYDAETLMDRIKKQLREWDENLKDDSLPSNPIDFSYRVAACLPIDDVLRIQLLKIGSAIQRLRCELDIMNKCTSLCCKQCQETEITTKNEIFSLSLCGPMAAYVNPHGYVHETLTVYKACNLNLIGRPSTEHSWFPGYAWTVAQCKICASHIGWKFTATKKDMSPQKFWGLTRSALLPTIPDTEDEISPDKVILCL
T1 sequence (Q16531 whole entry partner): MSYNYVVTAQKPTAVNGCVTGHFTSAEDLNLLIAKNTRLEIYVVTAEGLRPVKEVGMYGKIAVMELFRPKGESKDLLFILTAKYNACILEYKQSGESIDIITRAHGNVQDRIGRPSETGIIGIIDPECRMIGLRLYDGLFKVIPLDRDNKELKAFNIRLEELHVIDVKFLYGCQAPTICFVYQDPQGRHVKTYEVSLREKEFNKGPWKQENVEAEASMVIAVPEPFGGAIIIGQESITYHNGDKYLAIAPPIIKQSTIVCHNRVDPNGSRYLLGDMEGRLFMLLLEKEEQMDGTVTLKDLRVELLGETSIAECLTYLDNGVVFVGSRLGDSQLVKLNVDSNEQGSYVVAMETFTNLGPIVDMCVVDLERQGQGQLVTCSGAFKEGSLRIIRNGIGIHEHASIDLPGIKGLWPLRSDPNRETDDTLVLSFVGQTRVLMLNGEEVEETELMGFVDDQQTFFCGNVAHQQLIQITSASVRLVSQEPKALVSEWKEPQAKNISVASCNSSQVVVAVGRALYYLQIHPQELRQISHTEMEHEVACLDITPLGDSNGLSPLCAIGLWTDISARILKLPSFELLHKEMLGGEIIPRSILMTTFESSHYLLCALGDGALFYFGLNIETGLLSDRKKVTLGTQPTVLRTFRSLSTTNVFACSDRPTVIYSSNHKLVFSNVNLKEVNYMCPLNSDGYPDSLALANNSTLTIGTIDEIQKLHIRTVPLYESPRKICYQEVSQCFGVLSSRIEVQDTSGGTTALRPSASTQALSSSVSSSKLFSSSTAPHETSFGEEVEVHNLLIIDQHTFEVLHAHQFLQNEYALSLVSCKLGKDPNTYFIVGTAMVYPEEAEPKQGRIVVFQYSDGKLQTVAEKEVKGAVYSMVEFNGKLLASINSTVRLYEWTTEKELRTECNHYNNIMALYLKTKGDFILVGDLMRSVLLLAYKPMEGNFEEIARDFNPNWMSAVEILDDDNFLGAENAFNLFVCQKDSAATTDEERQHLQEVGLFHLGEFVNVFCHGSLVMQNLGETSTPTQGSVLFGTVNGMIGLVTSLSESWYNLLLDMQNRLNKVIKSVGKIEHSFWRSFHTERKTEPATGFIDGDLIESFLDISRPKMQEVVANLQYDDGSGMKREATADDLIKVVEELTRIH

| DC50 [1] [nM] | Emax [2] [%] | DC50 [3] [nM] | DC50 [4] [nM] | DC50 [5] [nM] | SMILES |
| --- | --- | --- | --- | --- | --- |
| 1000 to 10000 | 50 to 90 | < 1000 |  |  | COC1CN(S(=O)(=O)Nc2ccc(F)c(Oc3ccc4ncn([C@H]5COC6(CCN(C7CC8(C7)CN(c7cc9c(cc7F)c(N7CCC(=O)NC7=O)nn9C)C8)CC6)C5)c(=O)c4c3)c2C#N)C1 [Compound 246, N-[2-cyano-3-[3-[(3R)-8-[2-[3-(2,4-dioxohexahydropyrimidin-1-yl)-5-fluoro-1-methyl-indazol-6-yl]-2-azaspiro[3.3]heptan-6-yl]-1-oxa-8-azaspiro[4.5]decan-3-yl]-4-oxo-quinazolin-6-yl]oxy-4-fluoro-phenyl]-3-methoxy-azetidine-1-sulfonamide] |
|  | < 50 |  | < 1000 | < 1000 | Cn1nc(N2CCC(=O)NC2=O)c2cc(F)c(N3CC4(CC(N5CCC6(CC5)CC(n5cnc7ccc(Oc8c(F)ccc(NS(=O)(=O)C9CCCC9)c8C#N)cc7c5=O)C6)C4)C3)cc21 [Compound 250, N-[2-cyano-3-[3-[7-[2-[3-(2,4-dioxohexahydropyrimidin-1-yl)-5-fluoro-1-methyl-indazol-6-yl]-2-azaspiro[3.3]heptan-6-yl]-7-azaspiro[3.5]nonan-2-yl]-4-oxo-quinazolin-6-yl]oxy-4-fluoro-phenyl]cyclopentanesulfonamide] |
|  | 50 to 90 |  | < 1000 | < 1000 | Cn1nc(N2CCC(=O)NC2=O)c2cc(F)c(N3CC4(CC(N5CCC6(CC5)C[C@@H](n5cnc7ccc(Oc8c(F)ccc(NS(=O)(=O)N9CC%10(CCC%10)C9)c8C#N)cc7c5=O)CO6)C4)C3)cc21 [Compound 254, N-[2-cyano-3-[3-[(3R)-8-[2-[3-(2,4-dioxohexahydropyrimidin-1-yl)-5-fluoro-1-methyl-indazol-6-yl]-2-azaspiro[3.3]heptan-6-yl]-1-oxa-8-azaspiro[4.5]decan-3-yl]-4-oxo-quinazolin-6-yl]oxy-4-fluoro-phenyl]-2-azaspiro[3.3]heptane-2-sulfonamide] |
| < 1000 | < 50 | < 1000 |  |  | Cn1nc(N2CCC(=O)NC2=O)c2cc(F)c(N3CC4(CC(N5CCC6(CC5)CC(n5cnc7ccc(Oc8c(F)ccc(NS(=O)(=O)C9CCC9)c8C#N)cc7c5=O)C6)C4)C3)cc21 [Compound 259, N-[2-cyano-3-[3-[7-[2-[3-(2,4-dioxohexahydropyrimidin-1-yl)-5-fluoro-1-methyl-indazol-6-yl]-2-azaspiro[3.3]heptan-6-yl]-7-azaspiro[3.5]nonan-2-yl]-4-oxo-quinazolin-6-yl]oxy-4-fluoro-phenyl]cyclobutanesulfonamide] |
| < 1000 | < 50 | < 1000 |  |  | Cn1nc(N2CCC(=O)NC2=O)c2cc(F)c(N3CC4(CC(N5CCC6(CC5)CC(n5cnc7ccc(Oc8c(F)ccc(NS(=O)(=O)C9CC9)c8C#N)cc7c5=O)C6)C4)C3)cc21 [Compound 260, N-[2-cyano-3-[3-[7-[2-[3-(2,4-dioxohexahydropyrimidin-1-yl)-5-fluoro-1-methyl-indazol-6-yl]-2-azaspiro[3.3]heptan-6-yl]-7-azaspiro[3.5]nonan-2-yl]-4-oxo-quinazolin-6-yl]oxy-4-fluoro-phenyl]cyclopropanesulfonamide] |
| < 1000 | < 50 | < 1000 |  |  | Cn1nc(N2CCC(=O)NC2=O)c2cc(F)c(N3CC4(CC(N5CCC6(CC5)CC(n5cnc7ccc(Oc8c(F)ccc(NS(=O)(=O)N9CC[C@@H](F)C9)c8C#N)cc7c5=O)C6)C4)C3)cc21 [Compound 261, (3R)-N-[2-cyano-3-[3-[7-[2-[3-(2,4-dioxohexahydropyrimidin-1-yl)-5-fluoro-1-methyl-indazol-6-yl]-2-azaspiro[3.3]heptan-6-yl]-7-azaspiro[3.5]nonan-2-yl]-4-oxo-quinazolin-6-yl]oxy-4-fluoro-phenyl]-3-fluoro-pyrrolidine-1-sulfonamide] |
|  | < 50 |  | < 1000 | < 1000 | CC(C)S(=O)(=O)Nc1ccc(F)c(Oc2ccc3ncn(C4CC5(CCN(C6CC7(C6)CN(c6cc8c(cc6F)c(N6CCC(=O)NC6=O)nn8C)C7)CC5)C4)c(=O)c3c2)c1C#N (stereo not drawn) [Compound 273, N-[2-cyano-3-[3-[7-[2-[3-(2,4-dioxohexahydropyrimidin-1-yl)-5-fluoro-1-methyl-indazol-6-yl]-2-azaspiro[3.3]heptan-6-yl]-7-azaspiro[3.5]nonan-2-yl]-4-oxo-quinazolin-6-yl]oxy-4-fluoro-phenyl]propane-2-sulfonamide] |
|  | < 50 |  | < 1000 | < 1000 | Cn1nc(N2CCC(=O)NC2=O)c2cc(F)c(N3CC4(CC(N5CCC6(CC5)CC(n5cnc7ccc(Oc8c(F)ccc(NS(=O)(=O)N9C[C@H]%10C[C@H]%10C9)c8C#N)cc7c5=O)C6)C4)C3)cc21 (stereo partly drawn) [Compound 277, (1R,5S)-N-[2-cyano-3-[3-[7-[2-[3-(2,4-dioxohexahydropyrimidin-1-yl)-5-fluoro-1-methyl-indazol-6-yl]-2-azaspiro[3.3]heptan-6-yl]-7-azaspiro[3.5]nonan-2-yl]-4-oxo-quinazolin-6-yl]oxy-4-fluoro-phenyl]-3-azabicyclo[3.1.0]hexane-3-sulfonamide] |
